Test results published in patent US20260108521A1, “GSPT1 DEGRADERS, COMPOSITIONS COMPRISING THE DEGRADER, AND METHODS OF USING THE SAME” (BIOFRONT LTD, priority 2022, published 2026).

Legend:
GSPT1 protein = target: T1, GSPT1 protein (Homo sapiens, UniProt P15170+Q96SW2); test: GSPT1 degradation assay (western blot) in HL-60 cells; type: cell-based; settings: GSPT1 protein level, 2h incubation, western blot normalized to beta-Actin; for inhibition at 0.1 µM: 0.1 μM compound; for inhibition at 1 µM: 1 μM compound
T1 construct: endogenous in cells; host or cells: HL-60 cells
Protocol: HL-60 cells (4×10^^6 cells/well) were seeded in 6-well culture plate (Costar, 3516) and treated with a variety of concentrations of test compound. After 2h incubation, cells were collected and lysed. The protein concentration was determined by BCA protein assay kit from Thermo (23227). The GSPT1 protein level was determined by western blots, using GSPT1 polyclonal antibody. Proteins were loaded into each well of the pre-casting gels and subjected to electrophoretic separation by SDS-PAGE. The protein resolved by SDS-PAGE were transferred to PVDF, blocked by 5% skim milk and probed with anti-GSPT1 antibody (Proteintech, 10763-1-AP) or anti-β-actin antibody (CST, 3700S), using following standard western blotting procedure. Blots intensities were quantified using ImageJ software and the intensity of GSPT1 bands were normalized to beta-Actin bands, respectively. The GSPT1 degradation results were then calculated. Reported compound C84971 (see WO2021126974A1 and WO2021126973A1) was used as a reference.

HL-60 cells = test: Cell viability assay (CellTiter-Glo); type: cell-based; settings: Homo sapiens, 72 h incubation, 6-point serial dilution
Protocol: HL-60 cells were seeded at a density of 7000 cells per well in 96-well culture plates (Corning 3903) with IMDM and treated with test compounds following a 6-point serial dilution. RPMI 1640 (0.1% DMSO) was used as control for each well. After 72 h incubation, cell viability was determined using the CellTiter-Glo assay kit (Promega, G9242) according to the manufacturer's instructions. The dose-response curves were determined and IC50 values were calculated using the GraphPad Prism software following a nonlinear regression method.

T1 sequence (P15170 whole entry): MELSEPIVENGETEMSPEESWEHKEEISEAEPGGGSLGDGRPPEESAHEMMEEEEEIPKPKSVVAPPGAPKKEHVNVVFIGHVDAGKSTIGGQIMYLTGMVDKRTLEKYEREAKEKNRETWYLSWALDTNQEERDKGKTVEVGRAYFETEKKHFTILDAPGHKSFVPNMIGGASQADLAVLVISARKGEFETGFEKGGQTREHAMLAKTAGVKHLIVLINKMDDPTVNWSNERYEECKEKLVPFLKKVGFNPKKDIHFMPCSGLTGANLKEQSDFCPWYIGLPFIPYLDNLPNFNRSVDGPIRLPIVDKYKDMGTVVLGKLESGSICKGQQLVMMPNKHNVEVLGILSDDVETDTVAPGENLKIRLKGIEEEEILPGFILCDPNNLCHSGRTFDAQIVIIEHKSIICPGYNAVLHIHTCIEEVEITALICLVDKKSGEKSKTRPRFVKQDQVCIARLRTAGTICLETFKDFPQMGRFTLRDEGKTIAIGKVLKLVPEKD
T1 sequence (Q96SW2 whole entry): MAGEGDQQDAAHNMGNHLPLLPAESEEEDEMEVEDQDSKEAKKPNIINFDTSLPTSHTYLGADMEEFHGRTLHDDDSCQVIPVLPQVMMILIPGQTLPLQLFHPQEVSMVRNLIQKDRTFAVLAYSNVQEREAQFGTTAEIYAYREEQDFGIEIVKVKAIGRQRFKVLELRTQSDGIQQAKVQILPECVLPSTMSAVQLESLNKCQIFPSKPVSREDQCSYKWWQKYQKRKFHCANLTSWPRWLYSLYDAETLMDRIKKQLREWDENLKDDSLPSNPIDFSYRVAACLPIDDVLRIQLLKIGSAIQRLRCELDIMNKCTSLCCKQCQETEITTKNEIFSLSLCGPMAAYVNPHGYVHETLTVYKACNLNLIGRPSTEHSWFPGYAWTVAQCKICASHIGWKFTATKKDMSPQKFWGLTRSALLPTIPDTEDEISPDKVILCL
T1 sequence (Q16531 whole entry partner): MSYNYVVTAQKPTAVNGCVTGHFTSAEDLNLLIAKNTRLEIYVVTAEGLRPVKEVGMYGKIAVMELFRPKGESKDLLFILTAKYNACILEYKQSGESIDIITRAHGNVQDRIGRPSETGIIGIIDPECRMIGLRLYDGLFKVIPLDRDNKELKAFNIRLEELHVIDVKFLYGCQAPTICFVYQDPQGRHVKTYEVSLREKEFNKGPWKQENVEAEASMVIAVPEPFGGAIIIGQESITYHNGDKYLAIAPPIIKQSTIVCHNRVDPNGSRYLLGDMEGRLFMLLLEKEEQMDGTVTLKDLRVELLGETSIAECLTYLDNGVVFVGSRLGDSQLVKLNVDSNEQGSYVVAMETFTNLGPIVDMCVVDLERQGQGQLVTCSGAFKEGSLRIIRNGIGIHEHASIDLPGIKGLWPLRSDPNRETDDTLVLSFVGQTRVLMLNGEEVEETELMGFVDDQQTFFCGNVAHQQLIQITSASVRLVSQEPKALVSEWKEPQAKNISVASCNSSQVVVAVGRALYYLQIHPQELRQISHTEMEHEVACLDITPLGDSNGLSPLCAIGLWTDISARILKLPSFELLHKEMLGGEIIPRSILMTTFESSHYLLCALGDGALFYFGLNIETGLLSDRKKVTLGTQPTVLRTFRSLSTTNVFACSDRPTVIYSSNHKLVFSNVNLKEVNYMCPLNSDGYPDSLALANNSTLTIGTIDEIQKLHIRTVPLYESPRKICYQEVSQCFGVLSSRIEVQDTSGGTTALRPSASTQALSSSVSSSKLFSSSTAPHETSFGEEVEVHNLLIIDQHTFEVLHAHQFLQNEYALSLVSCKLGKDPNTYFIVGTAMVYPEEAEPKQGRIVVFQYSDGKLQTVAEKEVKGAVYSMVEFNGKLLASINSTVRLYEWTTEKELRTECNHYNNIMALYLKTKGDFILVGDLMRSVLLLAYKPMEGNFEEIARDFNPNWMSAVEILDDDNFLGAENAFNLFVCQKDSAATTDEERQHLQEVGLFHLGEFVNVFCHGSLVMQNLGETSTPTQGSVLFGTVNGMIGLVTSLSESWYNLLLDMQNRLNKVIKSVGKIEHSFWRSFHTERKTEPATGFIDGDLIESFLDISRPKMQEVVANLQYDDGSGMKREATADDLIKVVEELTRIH

Row | Compound | inhibition at 0.1 µM (GSPT1 protein) [%] | inhibition at 1 µM (GSPT1 protein) [%] | IC50 (HL-60 cells) [nM]
1 | CCc1c[nH]c2ccc(-c3cccc(N4CCCN(CCC5CN(c6ccc7c(c6)C(=O)N(C6CCC(=O)NC6=O)C7=O)C5)C4=O)c3)c(Cl)c12 (stereo not drawn) [Compound 26, 5-(3-(2-(3-(3-(4-chloro-3-ethyl-1H-indol-5-yl)phenyl)-2-oxotetrahydropyrimidin-1(2H)-yl)ethyl)azetidin-1-yl)-2-(2,6-dioxopiperidin-3-yl)isoindoline-1,3-dione] | 63 | 85 | 78
2 | CCc1c[nH]c2ccc(-c3cccc(N4CCCN(CCC5CN(c6ccc7c(c6)C(=O)N(C6CCC(=O)NC6=O)C7=O)C5)C4=O)c3)nc12 (stereo not drawn) [Compound 27, 2-(2,6-dioxopiperidin-3-yl)-5-(3-{2-[3-(3-{3-ethyl-1H-pyrrolo[3,2-b]pyridin-5-yl}phenyl)-2-oxo-1,3-diazinan-1-yl]ethyl}azetidin-1-yl)isoindole-1,3-dione] | 45 | 70 | 397
3 | Nc1ccc(-c2cccc(N3CCCN(CC4CCN(c5ccc6c(c5)C(=O)N(C5CCC(=O)NC5=O)C6=O)CC4)C3=O)c2)c(Cl)n1 (stereo not drawn) [Compound 28, 5-[4-({3-[3-(6-amino-2-chloropyridin-3-yl)phenyl]-2-oxo-1,3-diazinan-1-yl}methyl)piperidin-1-yl]-2-(2,6-dioxopiperidin-3-yl)isoindole-1,3-dione] | 77 | 78 | 51
4 | O=C1CCC(N2Cc3ccc(N4CCNC4=O)cc3C2=O)C(=O)N1 (stereo not drawn) [Compound C84971, reference compound] | 0 | 0 | > 5000

More lines, now with the values ahead:

Row | inhibition at 0.1 µM (GSPT1 protein) [%] | inhibition at 1 µM (GSPT1 protein) [%] | IC50 (HL-60 cells) [nM] | Compound
5 | 45 | 47 | 222 | CCc1c(N)ccc(-c2cccc(N3CCCN(CC4CCN(c5ccc6c(c5)C(=O)N(C5CCC(=O)NC5=O)C6=O)CC4)C3=O)c2)c1Cl (stereo not drawn) [Compound 29, 5-(4-((3-(4′-amino-2′-chloro-3′-ethyl-[1,1′-biphenyl]-3-yl)-2-oxotetrahydropyrimidin-1(2H)-yl)methyl)piperidin-1-yl)-2-(2,6-dioxopiperidin-3-yl)isoindoline-1,3-dione]
6 | 85 | > 95 | 10 | CCc1c[nH]c2ncc(-c3cccc(N4CCCN(CC5CCN(c6ccc7c(c6)C(=O)N(C6CCC(=O)NC6=O)C7=O)CC5)C4=O)c3)c(Cl)c12 (stereo not drawn) [Compound A, 5-(4-((3-(3-(4-chloro-3-ethyl-1H-pyrrolo[2,3-b]pyridin-5-yl)phenyl)-2-oxotetrahydropyrimidin-1(2H)-yl)methyl)piperidin-1-yl)-2-(2,6-dioxopiperidin-3-yl)isoindoline-1,3-dione]
7 | 45 | 75 | 122 | O=C1CCC(N2C(=O)c3cc(F)c(N4CCC(CCN5CCCN(c6cccc(-c7cnc8[nH]cc(C9CC9)c8c7Cl)c6)C5=O)CC4)cc3C2=O)C(=O)N1 (stereo not drawn) [Compound B, 5-(4-(2-(3-(3-(4-chloro-3-cyclopropyl-1H-pyrrolo[2,3-b]pyridin-5-yl)phenyl)-2-oxotetrahydropyrimidin-1(2H)-yl)ethyl)piperidin-1-yl)-2-(2,6-dioxopiperidin-3-yl)-6-fluoroisoindoline-1,3-dione]
8 | 86 | 95 | 9.2 | CCc1c[nH]c2ncc(-c3cccc(N4CCCN(CCC5CN(c6ccc7c(c6)C(=O)N(C6CCC(=O)NC6=O)C7=O)C5)C4=O)c3)c(Cl)c12 (stereo not drawn) [Compound F, 5-(3-(2-(3-(3-(4-chloro-3-ethyl-1H-pyrrolo[2,3-b]pyridin-5-yl)phenyl)-2-oxotetrahydropyrimidin-1(2H)-yl)ethyl)azetidin-1-yl)-2-(2,6-dioxopiperidin-3-yl)isoindoline-1,3-dione]
